In article PMC10809103, “Phosphatidylthreonine is a procoagulant lipid detected in human blood and elevated in coronary artery disease” (Journal of lipid research, 2023):

Assays:
Prothrombin (FII) = molecular target: T1, Prothrombin (FII) (Homo sapiens, UniProt P00734); assay: surface plasmon resonance, lipid in nanodiscs, steady state; format: binding; conditions: read-out: Kd (μM) / 40% PS 60% PC
T1 construct: gene F2; zymogen prothrombin; source and preparation only in supplement
Text: surface plasmon resonance, lipid in nanodiscs, steady state on Prothrombin (FII)

Factor X (FX) = molecular target: T2, Factor X (FX) (Homo sapiens, UniProt P00742); assay: as above; format: binding; conditions: read-out: Kd (μM) / 40% PS 60% PC
T2 construct: gene F10; zymogen factor X, two-chain; source and preparation only in supplement; with Coagulation factor X (factor X heavy chain)
T2 sequence (P00742 41-179): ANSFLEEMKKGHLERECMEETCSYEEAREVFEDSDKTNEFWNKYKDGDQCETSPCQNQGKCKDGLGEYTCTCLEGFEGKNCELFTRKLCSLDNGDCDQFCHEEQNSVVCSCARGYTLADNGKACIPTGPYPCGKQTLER
T2 sequence (P00742 183-488): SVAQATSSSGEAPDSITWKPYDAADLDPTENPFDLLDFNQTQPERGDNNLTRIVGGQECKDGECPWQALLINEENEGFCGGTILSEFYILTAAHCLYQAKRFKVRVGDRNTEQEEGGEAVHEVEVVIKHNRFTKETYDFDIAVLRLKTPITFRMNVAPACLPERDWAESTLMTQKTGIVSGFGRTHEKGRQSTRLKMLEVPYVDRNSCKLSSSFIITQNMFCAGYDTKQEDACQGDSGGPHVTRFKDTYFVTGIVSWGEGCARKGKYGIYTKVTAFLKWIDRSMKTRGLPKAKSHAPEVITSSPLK
Text: surface plasmon resonance, lipid in nanodiscs, steady state on Factor X (FX)

- Kd (Prothrombin (FII)): 6.23 ± 0.921 µM
- Kd (Factor X (FX)): 1.33 ± 0.191 µM
Structure (SMILES): CCCCCCCC/C=C\CCCCCCCC(=O)O[C@H](COC(=O)CCCCCCCCCCCCCCC)COP(=O)(O)OC[C@H](N)C(=O)O [PS 16:0/18:1(9Z)]
